Source: patent US12252524B2, “GIP/GLP1 co-agonist compounds” (Eli Lilly and Company, priority 2018, dated 2025)
Numbered stars: 1 amine (or outer) side, 2 acyl side, 3 side chain; on linkers, the order of the positions; unused ones are H or OH. Square brackets hold non-standard residues; d marks the D form. Side chains are listed from the residue outwards. Peptide text beside a SMILES is read from it. * marks the point of attachment. C20 diacid = O=C(O)CCCCCCCCCCCCCCCCCCC(=O)*; γGlu = O=C(O)[C@H](CCC(=O)[*:2])N[*:1]; αMeL = CC(C)C[C@](C)(N)C(=O)O; Orn = NCCC[C@H](N)C(=O)O; AEEA = NCCOCCOCC(=O)O; Aib = CC(C)(N)C(=O)O

How the values were obtained:
[1] = target: T1, human Gcg receptor (Homo sapiens, UniProt P47871); assay: [125I]-Glucagon binding (SPA), human Gcg receptor; details: read-out: hGLcgR Ki, nM (SEM, n)
T1 construct: expressed in transfected cells; crude membranes
T1 sequence (P47871 26-477): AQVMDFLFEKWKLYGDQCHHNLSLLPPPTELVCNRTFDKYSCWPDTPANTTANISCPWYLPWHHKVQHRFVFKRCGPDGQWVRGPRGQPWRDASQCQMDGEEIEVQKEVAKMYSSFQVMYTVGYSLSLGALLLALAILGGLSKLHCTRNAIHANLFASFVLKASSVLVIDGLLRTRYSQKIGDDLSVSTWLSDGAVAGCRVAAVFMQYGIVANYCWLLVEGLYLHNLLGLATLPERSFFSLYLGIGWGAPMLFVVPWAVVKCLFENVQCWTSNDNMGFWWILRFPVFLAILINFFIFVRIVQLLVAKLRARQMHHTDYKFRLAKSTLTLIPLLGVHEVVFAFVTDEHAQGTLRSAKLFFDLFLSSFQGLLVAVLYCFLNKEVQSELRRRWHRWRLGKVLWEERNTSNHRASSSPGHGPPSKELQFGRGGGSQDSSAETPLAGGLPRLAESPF
Method in brief: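 Scintillation counts are taken after membranes and WGA beads incubate and settle for 12 hours at room temperature. Buffer is 25 mM HEPES, pH 7.4, with CaCl2, MgCl2, bacitracin and Tween-20. Ki values, from four-parameter IC50 fits, are geometric means over independent days.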

[2] = target: T2, human GIP receptor (Homo sapiens, UniProt P48546); assay: [125I]-GIP binding (SPA), human GIP receptor; details: read-out: hGIPR Ki, nM (SEM, n)
T2 construct: expressed in transfected cells; crude membranes
T2 sequence (P48546 22-466): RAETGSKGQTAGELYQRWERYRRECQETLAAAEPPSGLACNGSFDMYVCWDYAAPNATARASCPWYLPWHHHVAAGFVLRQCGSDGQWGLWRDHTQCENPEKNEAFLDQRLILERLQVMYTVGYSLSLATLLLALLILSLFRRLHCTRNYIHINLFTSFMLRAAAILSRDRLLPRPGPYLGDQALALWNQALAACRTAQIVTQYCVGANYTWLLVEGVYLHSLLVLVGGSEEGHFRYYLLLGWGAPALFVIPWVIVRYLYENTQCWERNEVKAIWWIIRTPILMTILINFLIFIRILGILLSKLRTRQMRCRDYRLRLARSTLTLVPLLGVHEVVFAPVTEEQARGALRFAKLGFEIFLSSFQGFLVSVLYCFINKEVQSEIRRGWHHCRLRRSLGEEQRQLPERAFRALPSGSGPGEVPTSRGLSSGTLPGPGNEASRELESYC

[3] = target: human GLP-1 receptor (GLP-1R) (Homo sapiens, UniProt P43220); assay: cAMP pharmacological functional assay in presence of casein, hGLP-1R; type: cell-based; details: HEK293 cells expressing hGLP-1R, 0.1% Casein, geometric mean; read-out: hGLP1R cAMP Rel EC50 nM (SEM, n)
Chain of human GLP-1 receptor (GLP-1R) (P43220 24-463): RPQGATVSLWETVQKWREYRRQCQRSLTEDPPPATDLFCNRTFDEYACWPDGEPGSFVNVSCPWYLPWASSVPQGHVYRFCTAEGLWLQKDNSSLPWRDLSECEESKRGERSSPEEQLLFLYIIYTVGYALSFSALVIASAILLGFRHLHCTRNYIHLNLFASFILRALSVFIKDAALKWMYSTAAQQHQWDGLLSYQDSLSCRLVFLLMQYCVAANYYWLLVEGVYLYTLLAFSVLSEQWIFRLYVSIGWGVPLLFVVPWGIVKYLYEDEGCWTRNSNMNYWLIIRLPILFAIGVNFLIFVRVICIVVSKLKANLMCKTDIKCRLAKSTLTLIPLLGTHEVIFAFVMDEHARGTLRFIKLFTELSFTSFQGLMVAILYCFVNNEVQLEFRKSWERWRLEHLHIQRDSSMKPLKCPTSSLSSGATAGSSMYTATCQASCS

[4] = target: T3, gastric inhibitory peptide receptor (GIPR) (Homo sapiens, UniProt P48546); assay: cAMP pharmacological functional assay in presence of casein, hGIPR; type: cell-based; details: HEK293 cells expressing hGIPR, 0.1% Casein, geometric mean; read-out: hGIPR cAMP Rel EC50 nM (SEM, n)
T3 sequence (P48546 22-466): T2 sequence (P48546 22-466)

[5] = target: T4, human GLP-1R (Homo sapiens, UniProt P43220); assay: [125I]-GLP-1 binding (SPA), human GLP-1 receptor; parameters: expressed in transfected cells; crude membranes; details: read-out: hGLP1R Ki, (nM) (SEM, n)
T4 sequence (P43220 24-463): as above
Method in brief: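 Frozen cell pellets are lysed on ice in hypotonic Tris buffer, pH 7.5, homogenized, and centrifuged to a membrane pellet resuspended at about 1 to 3 mg/mL. Binding is then measured in HEPES-based buffer at pH 7.4, and curves are fitted to give IC50 and Ki.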

[6] = target: T4, human GLP-1R; assay: GLP-1R CHO cell β-arrestin recruitment assay; type: cell-based; parameters: host or cells: CHO-K1 PathHunter cells, assay-ready frozen; details: for EC50: CHO-K1 cells, PathHunter β-arrestin-2 recruitment, 0.1% casein, read-out: hGLP1R B-Arrestin2 Rel EC50 uM (SEM, n); for hGLP1R B-Arrestin2 % Top: normalized to GLP-1 maximum control
Method in brief: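 PathHunter CHO-K1 cells with ProLink-tagged human GLP-1R and enzyme-acceptor-tagged β-arrestin-2 treated with serially diluted peptides in assay buffer containing 0.1% hydrolyzed casein, 90 min at 37 °C.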

[7] = target: T4, human GLP-1R; assay: GLP-1R HEK293 cell membrane [35S]GTPγS binding assay; type: biochemical; parameters: expressed in transfected cells; host or cells: HEK293 cells expressing human GLP-1R; membranes; details: HEK293 cell membranes expressing human GLP-1R, [35S]GTPγS binding; read-out: hGLP1R GTPgS Rel EC50 nM (SEM, n)
Method in brief: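 Membranes from HEK293 cells expressing the receptor incubated with peptide and […] [35S]GTPγS in HEPES pH 7.4 buffer with NaCl, MgCl2, saponin and BSA, 30 min at room temperature. Gαs-bound label captured by anti-Gαs antibody/SPA beads and counted; EC50 from four-parameter logistic fit.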

SMILES	Ki [1] [nM]	Ki [2] [nM]	EC50 [3] [nM]	EC50 [4] [nM]	Ki [5] [nM]	EC50 [6] [µM]	hGLP1R B-Arrestin2 % Top [6] [%]	EC50 [7] [nM]
CC[C@H](C)[C@H](NC(=O)[C@H](CC(C)C)NC(=O)[C@H](Cc1ccc(O)cc1)NC(=O)[C@H](CCC(=O)O)NC(=O)[C@@H](NC(=O)[C@H](Cc1ccccc1)NC(=O)[C@H](CC(=O)O)NC(=O)C(C)(C)NC(=O)[C@H](CCC(N)=O)NC(=O)[C@H](C)NC(=O)[C@H](CCCCNC(=O)COCCOCCNC(=O)COCCOCCNC(=O)CC[C@H](NC(=O)CCCCCCCCCCCCCCCCCCC(=O)O)C(=O)O)NC(=O)[C@H](CCC(=O)O)NC(=O)[C@H](CC(=O)O)NC(=O)[C@H](CC(C)C)NC(=O)[C@](C)(CC(C)C)NC(=O)[C@@H](NC(=O)[C@H](CO)NC(=O)[C@H](Cc1ccc(O)cc1)NC(=O)[C@H](CC(=O)O)NC(=O)[C@H](CO)NC(=O)[C@@H](NC(=O)[C@H](Cc1ccccc1)NC(=O)[C@@H](NC(=O)CNC(=O)[C@H](CCC(=O)O)NC(=O)C(C)(C)NC(=O)[C@@H](N)Cc1ccc(O)cc1)[C@@H](C)O)[C@@H](C)O)[C@@H](C)CC)[C@@H](C)CC)C(=O)N[C@@H](C)C(=O)NCC(=O)NCC(=O)N1CCC[C@H]1C(=O)N[C@@H](CO)C(=O)N[C@@H](CO)C(=O)NCC(=O)N[C@@H](C)C(=O)N1CCC[C@H]1C(=O)N1CCC[C@H]1C(=O)N1CCC[C@H]1C(=O)N[C@@H](CO)C(N)=O [Example 344] (H-Y[Aib]EGTFTSDYSI[αMeL]LDEK([AEEA-AEEA-γGlu-C20 diacid])AQ[Aib]DFIEYLIAGGPSSGAPPPS-NH2)	> 1080	0.0507	0.044	0.0433	14.8	0.0343	46	0.423
CC[C@H](C)[C@H](NC(=O)[C@H](CC(C)C)NC(=O)[C@H](Cc1ccc(O)cc1)NC(=O)[C@H](CCC(=O)O)NC(=O)[C@@H](NC(=O)[C@H](Cc1ccccc1)NC(=O)[C@H](C)NC(=O)C(C)(C)NC(=O)[C@H](CCC(N)=O)NC(=O)[C@H](C)NC(=O)[C@H](CCCCNC(=O)COCCOCCNC(=O)COCCOCCNC(=O)CC[C@H](NC(=O)CCCCCCCCCCCCCCCCCCC(=O)O)C(=O)O)NC(=O)[C@H](CCCN)NC(=O)[C@H](CC(=O)O)NC(=O)[C@H](CC(C)C)NC(=O)[C@](C)(CC(C)C)NC(=O)[C@@H](NC(=O)[C@H](CO)NC(=O)[C@H](Cc1ccc(O)cc1)NC(=O)[C@H](CC(=O)O)NC(=O)[C@H](CO)NC(=O)[C@@H](NC(=O)[C@H](Cc1ccccc1)NC(=O)[C@@H](NC(=O)CNC(=O)[C@H](CCC(=O)O)NC(=O)C(C)(C)NC(=O)[C@H](N)Cc1ccc(O)cc1)[C@@H](C)O)[C@@H](C)O)[C@@H](C)CC)[C@@H](C)CC)C(=O)N[C@@H](C)C(=O)NCC(=O)NCC(=O)N1CCC[C@H]1C(=O)N[C@@H](CO)C(=O)N[C@@H](CO)C(=O)NCC(=O)N[C@@H](C)C(=O)N1CCC[C@H]1C(=O)N1CCC[C@H]1C(=O)N1CCC[C@H]1C(=O)N[C@@H](CO)C(N)=O [Example 346] (H-[dY][Aib]EGTFTSDYSI[αMeL]LD[Orn]K([AEEA-AEEA-γGlu-C20 diacid])AQ[Aib]AFIEYLIAGGPSSGAPPPS-NH2)	310	0.0559	0.128	0.144	1.67	0.00325	19.3	0.737
